These results are taken from paper PMC9687209 (2022).

The test system of assay [1] is C2 (DNA, aptamer) ATTGGCACTCCACGCATAGGGGATAACGGGTTGATGGTACTTCTATCTATCGCGTTGTGCCCTATGCGTGCTACCGTGAA
Description: BLI. Conditions: 177.7 mM Na+, 0.492 mM Mg2+; 0.2 g/L KCl, 0.2 g/L KH2PO4, 0.1 g/L CaCl2; selection buffer (NaCl/phosphate), pH 7.4, 25 °C.

Assay [2] relates to Random Sequence (DNA, single strand) ATTGGCACTCCACGCATAGGATTCCGGCTAATCGACTGACTGCCGGTACGATGCAGTCAGCCTATGCGTGCTACCGTGAA
Description: BLI. Conditions: 177.7 mM Na+, 0.492 mM Mg2+; 0.2 g/L KCl, 0.2 g/L KH2PO4, 0.1 g/L CaCl2; selection buffer, pH 7.4, 25 °C; NB [sic]; 6.25 μM tested in Figure 4.

Assay [3] deals with C53 (DNA, aptamer) ATTGGCACTCCACGCATAGGGTAAAGTACGTATGTCATGCACATGCCGTATTCTCTTTGCCCTATGCGTGCTACCGTGAA
As to the kind of experiment: BLI. Conditions: 177.7 mM Na+, 0.492 mM Mg2+; 0.2 g/L KCl, 0.2 g/L KH2PO4, 0.1 g/L CaCl2; selection buffer (NaCl/phosphate), pH 7.4, 25 °C; NB [sic]; highest concentration not stated.

Assay [4] has as its system C1-a (DNA, aptamer) CAACATGATGTTCCGTCATTTTG
As to the kind of experiment: BLI. Conditions: 177.7 mM Na+, 0.492 mM Mg2+; 0.2 g/L KCl, 0.2 g/L KH2PO4, 0.1 g/L CaCl2; selection buffer (NaCl/phosphate), pH 7.4, 25 °C.

The test system of assay [5] is C12/htC2 (DNA, aptamer) ATTGGCACTCCACGCATAGGGACATCGAGAAGAATCCTGATACGACTTGGCTTTGCTGGCCCTATGCGTGCTACCGTGAA
As to the kind of experiment: BLI. To be noted: 177.7 mM Na+, 0.492 mM Mg2+; 0.2 g/L KCl, 0.2 g/L KH2PO4, 0.1 g/L CaCl2; selection buffer (NaCl/phosphate), pH 7.4, 25 °C.

For assay [6], the system named is C1-b (DNA, aptamer) GGTGTGTACACC
As to the kind of experiment: BLI. To be noted: 177.7 mM Na+, 0.492 mM Mg2+; 0.2 g/L KCl, 0.2 g/L KH2PO4, 0.1 g/L CaCl2; selection buffer (NaCl/phosphate), pH 7.4, 25 °C.

The test system of assay [7] is C1-s (DNA, aptamer) CCAACATGATGTTCCGTCATTTTGAGGTGTGTACACCGTG
As to the kind of experiment: BLI. To be noted: 177.7 mM Na+, 0.492 mM Mg2+; 0.2 g/L KCl, 0.2 g/L KH2PO4, 0.1 g/L CaCl2; selection buffer (NaCl/phosphate), pH 7.4, 25 °C.

For assay [8], the system named is C100/htC4 (DNA, aptamer) ATTGGCACTCCACGCATAGGGAATGGACCCGGTATAATTCCCTCAAGAGTGCCAATTTCACCTATGCGTGCTACCGTGAA
As to the kind of experiment: BLI. To be noted: 177.7 mM Na+, 0.492 mM Mg2+; 0.2 g/L KCl, 0.2 g/L KH2PO4, 0.1 g/L CaCl2; selection buffer (NaCl/phosphate), pH 7.4, 25 °C.

For assay [9], the system named is C1/htC1 (DNA, aptamer) ATTGGCACTCCACGCATAGGCCAACATGATGTTCCGTCATTTTGAGGTGTGTACACCGTGCCTATGCGTGCTACCGTGAA
As to the kind of experiment: BLI. To be noted: 177.7 mM Na+, 0.492 mM Mg2+; 0.2 g/L KCl, 0.2 g/L KH2PO4, 0.1 g/L CaCl2; selection buffer (NaCl/phosphate), pH 7.4, 25 °C.

Assay [10] has as its system C87 (DNA, aptamer) ATTGGCACTCCACGCATAGGGGAAGCTGCTCTCATCAATAAAAAATGAGACGGAGGTTACCCTATGCGTGCTACCGTGAA
Description: BLI. To be noted: 177.7 mM Na+, 0.492 mM Mg2+; 0.2 g/L KCl, 0.2 g/L KH2PO4, 0.1 g/L CaCl2; selection buffer (NaCl/phosphate), pH 7.4, 25 °C.

In assay [11] the test system is C66 (DNA, aptamer) ATTGGCACTCCACGCATAGGGGTGGTCTTCTGGGTAATCCCCGACTACCCTTATGCCGGCCCTATGCGTGCTACCGTGAA
Description: BLI. To be noted: 177.7 mM Na+, 0.492 mM Mg2+; 0.2 g/L KCl, 0.2 g/L KH2PO4, 0.1 g/L CaCl2; selection buffer (NaCl/phosphate), pH 7.4, 25 °C.

In assay [12] the test system is C58/htC3 (DNA, aptamer) ATTGGCACTCCACGCATAGGCCAAGGTGTCAATCTTGAATAGCTGTGTAACGTCTATGTGCCTATGCGTGCTACCGTGAA
Description: BLI. To be noted: 177.7 mM Na+, 0.492 mM Mg2+; 0.2 g/L KCl, 0.2 g/L KH2PO4, 0.1 g/L CaCl2; selection buffer (NaCl/phosphate), pH 7.4, 25 °C.

The test system of assay [13] is C116 (DNA, aptamer) ATTGGCACTCCACGCATAGGGATCTCATAACCAGTCTCTTTGACTGATGTTAGTAAGGTCCCTATGCGTGCTACCGTGAA
Description: BLI. Conditions: 177.7 mM Na+, 0.492 mM Mg2+; 0.2 g/L KCl, 0.2 g/L KH2PO4, 0.1 g/L CaCl2; selection buffer (NaCl/phosphate), pH 7.4, 25 °C.

Assay [14] relates to C1-c (DNA, aptamer) CCAACATGATGTTCCGTCATTTTGAGCGTG
Description: BLI. Conditions: 177.7 mM Na+, 0.492 mM Mg2+; 0.2 g/L KCl, 0.2 g/L KH2PO4, 0.1 g/L CaCl2; selection buffer (NaCl/phosphate), pH 7.4, 25 °C.

Assay [15] concerns C1-d (DNA, aptamer) CCGAGGTGTGTACACCGTG
As to the kind of experiment: BLI. To be noted: 177.7 mM Na+, 0.492 mM Mg2+, 0.2 g/L KCl, 0.2 g/L KH2PO4, 0.1 g/L CaCl2, pH 7.4, 25 °C.

Assay [16] has as its system htC5 (DNA, aptamer) ATTGGCACTCCACGCATAGGGGAGGGCCGGTTGAACTGTAATGTGTAAACCACGCGCTACCCTATGCGTGCTACCGTGAA
As to the kind of experiment: BLI. To be noted: 177.7 mM Na+, 0.492 mM Mg2+; 0.2 g/L KCl, 0.2 g/L KH2PO4, 0.1 g/L CaCl2; selection buffer (NaCl/phosphate), pH 7.4, 25 °C; NB [sic]; highest concentration not stated.

The subject of assay [17] is C1-d (DNA, aptamer) CCGAGGTGTGTACACCGTG
Description: BLI response, four-parameter logistic fit. Conditions: 177.7 mM Na+, 0.492 mM Mg2+; 0.2 g/L KCl, 0.2 g/L KH2PO4, 0.1 g/L CaCl2; selection buffer, pH 7.4, 25 °C; calibration curve 0.625-30 μM DA; Hill slope 1.351.

With `C/C(=C/C=C/[C@@H](C)C(=O)O)[C@H]1CN[C@H](C(=O)O)[C@H]1CC(=O)O`, the KD turned out to be 20.3 µM in [1]; 6.9 ± 0.628 µM in assay [4]; 5.21 µM in assay [5]; 0.167 ± 0.00933 µM in [6]; 1.5 ± 0.113 µM in assay [7]; 3.25 µM in [8]. Besides, the KD in assay [9] stood at 1.69 µM; in assay [10] it was 5.04 µM; in [11], 22.7 µM; in [12] it was 6.33 µM; in [13], 11.7 µM; in assay [14], 4.9 ± 0.312 µM. For the same compound, the KD in assay [15] (selection buffer (NaCl/phosphate), kon 2.94 × 10^5 1/Ms, kdis 5.13 × 10^-2 1/s) is 0.109 ± 0.00931 µM. Also, the binding result in [2], in [3] and in [16] was “no” throughout. Also, in [17], the EC50 was 12.57 µM.

As to `C=C1[C@@H](O)[C@@H]2O[C@]3(CC[C@H](/C=C/[C@@H](C)[C@@H]4CC(C)=C[C@@]5(O[C@H](C[C@@](C)(O)C(=O)O)CC[C@H]5O)O4)O3)CC[C@H]2O[C@@H]1[C@@H](O)C[C@H](C)[C@H]1O[C@@]2(CCCCO2)CC[C@H]1C`, in assay [15] (selection buffer, 6.25 μM tested), the binding entry is reported as “no”.

The term KD denotes the free concentration of one partner at which half of the binding sites on the other are occupied at equilibrium, for simple one-to-one binding. High values mean a looser complex, low ones a tighter complex. The term EC50 denotes the concentration at which the effect is half-maximal. A low value points to higher potency in that assay.
